# The OligoGym collection
# “And” between values parts separate entries of the source, which are not always exact repeats. Equal values may be shown once. After the bases stand the sugars from the 5' end (letter, count) and the backbone: PS all phosphorothioate, else s phosphorothioate and o phosphodiester by linkage. Methylation of C is not given here. e = 2'-O-(2-methoxyethyl) (MOE); l = locked nucleic acid (LNA); k = constrained ethyl (cEt); d = 2'-deoxy (DNA)
# How the values were obtained:
# [1] = molecular target: SNHG14; details: ASO, Human Neuronal Cell
# [2] = molecular target: SOD1; details: ASO
sequence,measurement,setting,value
"AGATCATTCTCAACAATTA (sugars ldlddldddddddddllll, PS)",target mRNA inhibition,[1]; 7.5 µM,50%
"AGCAACATTATTAACCAC (sugars l1 d3 l1 d7 l6, PS)",target mRNA inhibition,[1]; 7.5 µM,41%
"AGCAACATTATTAACCAC (sugars l3 d9 l3 d1 l2, PS)",target mRNA inhibition,[1]; 7.5 µM,27%
"AGCAACATTATTAACCAC (sugars l5 d7 l1 d3 l2, PS)",target mRNA inhibition,[1]; 7.5 µM,47%
"AGCAACATTATTAACCAC (sugars lddlddddddddldllll, PS)",target mRNA inhibition,[1]; 7.5 µM,47%
"AGCAACATTATTAACCACC (sugars ldddddddddddldlddll, PS)",target mRNA inhibition,[1]; 7.5 µM,26%
"AGCAACATTATTAACCACC (sugars lddldddddddddlldlll, PS)",target mRNA inhibition,[1]; 7.5 µM,50%
"AGCATCATATAAACCT (sugars l3 d10 l3, PS)",target mRNA inhibition,[1]; 0.2 µM,34%
same,target mRNA inhibition,[1]; 1 µM,26%
"AGCATTCAACCCTAAT (sugars l4 d10 l2, PS)",target mRNA inhibition,[1]; 0.2 µM,52%
same,target mRNA inhibition,[1]; 1 µM,60%
"AGCTCTAAACCTTCAA (sugars l3 d10 l3, PS)",target mRNA inhibition,[1]; 0.2 µM,40%
same,target mRNA inhibition,[1]; 1 µM,12%
"AGCTTACCAAATATTC (sugars l4 d10 l2, PS)",target mRNA inhibition,[1]; 0.2 µM,17%
same,target mRNA inhibition,[1]; 1 µM,23%
"AGCTTTTAACCAGAGTG (sugars l2 d11 l4, PS)",target mRNA inhibition,[1]; 7.5 µM,78%
"AGTCCTTCCTTTAACCA (sugars l2 d13 l2, PS)",target mRNA inhibition,[1]; 0.2 µM,21%
same,target mRNA inhibition,[1]; 1 µM,41%
"AGTTCTACTATACTTTC (sugars l3 d1 l1 d10 l2, PS)",target mRNA inhibition,[1]; 7.5 µM,64%
"TTAATGTTTATCAGGAT (sugars ekekddddddddeeeee, linkages s1 o2 s9 o2 s2)",target mRNA inhibition,"[2]; A431, 0.062 µM",6%
same,target mRNA inhibition,"[2]; A431, 0.185 µM",21%
same,target mRNA inhibition,"[2]; A431, 0.556 µM",44%
same,target mRNA inhibition,"[2]; A431, 1.667 µM",76%
same,target mRNA inhibition,"[2]; A431, 5 µM",68%
same,target mRNA inhibition,"[2]; A431, 15 µM",77%
same,target mRNA inhibition,"[2]; SH-SY5Y, 0.062 µM",0%
same,target mRNA inhibition,"[2]; SH-SY5Y, 0.185 µM",0%
same,target mRNA inhibition,"[2]; SH-SY5Y, 0.556 µM",34%
same,target mRNA inhibition,"[2]; SH-SY5Y, 1.667 µM",61%
same,target mRNA inhibition,"[2]; SH-SY5Y, 5 µM",81%
same,target mRNA inhibition,"[2]; SH-SY5Y, 15 µM",90%
"TTACACCACAAGCCAAA (sugars e2 k2 d9 k2 e2, PS)",target mRNA inhibition,"[2]; HepG2, 4 µM",63%
"TTACAGTGTTTAATGTT (sugars e3 k2 d7 k2 e3, PS)",target mRNA inhibition,"[2]; HepG2, 3 µM",18%
"TTATTCACAGGCTTGAA (sugars e2 k2 d9 k2 e2, PS)",target mRNA inhibition,"[2]; HepG2, 5 µM",30%
"TTATTGGGCGATCCCAA (sugars e3 k2 d7 k2 e3, PS)",target mRNA inhibition,"[2]; HepG2, 3 µM",15%
"TTCACAGGCTTGAATGA (sugars e2 k2 d8 k2 e3, PS)",target mRNA inhibition,"[2]; HepG2, 5 µM",20%
"TTCACAGGCTTGAATGA (sugars e3 k2 d7 k2 e3, PS)",target mRNA inhibition,"[2]; HepG2, 3 µM",9%
"TTCATCCTTTGGCCCACCGT (sugars e5 d10 e5, PS)",target mRNA inhibition,"[2]; HepG2, 3 µM",30%
"TTCCGAGGACTGCAACGGAA (sugars e5 d10 e5, PS)",target mRNA inhibition,"[2]; HepG2, 4 µM",5%
"TTCTACAGCTAGCAGGATAA (sugars e5 d10 e5, PS)",target mRNA inhibition,"[2]; HepG2, 2 µM",50%
"TTCTGCTCGAAATTGAT (sugars e3 k2 d7 k2 e3, PS)",target mRNA inhibition,"[2]; HepG2, 3 µM",18%
"TTGCCCAAGTCTCCAACATG (sugars e5 d10 e5, PS)",target mRNA inhibition,"[2]; HepG2, 5 µM",41% and 33%
"TTGGCCCACCGTGTTTTCTG (sugars e5 d10 e5, PS)",target mRNA inhibition,"[2]; HepG2, 5 µM",35% and 26%
"TTTAATACCCATCTGTG (sugars e3 k2 d7 k2 e3, PS)",target mRNA inhibition,"[2]; HepG2, 3 µM",0%
"TTTAATGTTTATCAGG (sugars ekddddddddekekee, linkages s1 o1 s8 o3 s2)",target mRNA inhibition,"[2]; A431, 0.12 µM",20%
same,target mRNA inhibition,"[2]; A431, 0.6 µM",5%
same,target mRNA inhibition,"[2]; A431, 3 µM",12%
same,target mRNA inhibition,"[2]; A431, 15 µM",33%
same,target mRNA inhibition,"[2]; HepG2, 0.222 µM",21%
same,target mRNA inhibition,"[2]; HepG2, 0.667 µM",38%
same,target mRNA inhibition,"[2]; HepG2, 2 µM",58%
same,target mRNA inhibition,"[2]; HepG2, 6 µM",81%
"TTTATTGGGCGATCCCA (sugars e2 k2 d8 k2 e3, PS)",target mRNA inhibition,"[2]; HepG2, 4 µM",34%
"TTTCCTTCTGCTCGAAA (sugars e3 k2 d7 k2 e3, PS)",target mRNA inhibition,"[2]; HepG2, 3 µM",6%
"TTTCTACAGCTAGCAGG (sugars e2 k2 d9 k2 e2, PS)",target mRNA inhibition,"[2]; HepG2, 0.1875 µM",26%
same,target mRNA inhibition,"[2]; HepG2, 0.75 µM",68%
same,target mRNA inhibition,"[2]; HepG2, 3 µM",89%
same,target mRNA inhibition,"[2]; HepG2, 4 µM",84%
same,target mRNA inhibition,"[2]; HepG2, 12 µM",95%
"TTTCTCACTACAGGTAC (sugars e2 k2 d9 k2 e2, PS)",target mRNA inhibition,"[2]; HepG2, 5 µM",45%
"TTTTAAGATTACAGTGTTTA (sugars e5 d10 e5, PS)",target mRNA inhibition,"[2]; HepG2, 5 µM",13%
"TTTTATTCACAGGCTTG (sugars e2 k2 d9 k2 e2, PS)",target mRNA inhibition,"[2]; HepG2, 5 µM",48%
